Each compound was assayed against C-Raf FL (full length CRAF with Y340E and Y341E activating mutations, co-expressed with h14-3-3 zeta) (Homo sapiens (Human), UniProt P04049, Y340E/Y341E) (assay: In vitro Raf activity determination, AlphaScreen p-MEK readout, c-Raf (C-Raf FL)). Settings: c-Raf approximately 4 nM, ATP 1 μM, pre-incubation 60 minutes, reaction 1 hour.
Assay type: biochemical
How it was run: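 Full-length C-Raf (~4 nM) pre-incubated 60 min at room temperature with compound and kinase-dead biotinylated MEK1 (~10 nM) in Tris pH 7.5, 15 mM MgCl2, BSA, DTT. Reaction started with 1 μM ATP and run 1 h at room temperature. Phospho-MEK detected by AlphaScreen with anti-p-MEK antibody.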
Cc1ccc(NC(=O)c2ccnc(C(C)(F)F)c2)cc1-c1cnc2c(c1)N1CCOC[C@H]1[C@](C#N)(CF)C2 [Example 518, N-(3-((4aR,5R)-5-cyano-5-(fluoromethyl)-1,2,4,4a,5,6-hexahydro-[1,4]oxazino[4,3-a][1,5]naphthyridin-9-yl)-4-methyphenyl)-2-(1,1-difluoroethyl)iso-nicotinamide] was tested, and the IC50 was 0.1 nM. Work on Cc1ccc(NC(=O)c2ccnc(C(F)(F)F)c2)cc1-c1cnc2c(c1)N1CCOC[C@H]1[C@@](C#N)(CF)C2 [Example 520] yielded an IC50 of 0.1 nM. In the case of Cc1ccc(NC(=O)c2ccnc(C(F)(F)F)c2)cc1-c1cnc2c(c1)N1CCOC[C@H]1C[C@@H]2C [Example 521, N-(4-methyl-3-((4aR,6S)-6-methyl-1,2,4,4a,5,6-hexahydro-[1,4]oxazino[4,3-a][1,5]naph-thyridin-9-yl)phenyl)-2-(trifluoromethyl)iso-nicotinamide], the IC50 is reported as 0.5 nM. Work on Cc1ccc(NC(=O)c2ccnc(C(F)(F)F)c2)cc1-c1cnc2c(c1)N1CCOC[C@H]1C[C@H]2C [Example 522, N-(4-methyl-3-((4aR,6R)-6-methyl-1,2,4,4a,5,6-hexahydro-[1,4]oxazino[4,3-a][1,5]naph-thyridin-9-yl)phenyl)-2-(trifluoromethyl)iso-nicotinamide] yielded an IC50 of 0.1 nM. Cc1ccc(NC(=O)c2ccnc(C(C)(C)F)c2)cc1-c1ccc2c(c1)N1CCOC[C@H]1[C@](F)(CN)C2 [Example 525, N-(3-((4aS,5R)-5-(aminomethyl)-5-fluoro-1,2,4,4a,5,6-hexahydro-[1,4]oxazino[4,3-a]quinolin-9-yl)-4-methylphenyl)-2-(2-fluoropropan-2-yl)isonicotinamide] showed an IC50 of 1.5 nM. Compound Cc1ncc(NC(=O)c2cccc(C(F)(F)F)c2)cc1-c1ccc2c(c1)N1CCOC[C@H]1[C@](F)(CN)C2 [Example 526, N-(5-((4aS,5R)-5-(aminomethyl)-5-fluoro-1,2,4,4a,5,6-hexahydro-[1,4]oxazino[4,3-a]quinolin-9-yl)-6-methylpyridin-3-yl)-3-(trifluoromethyl)benzamide] has an IC50 of 2.6 nM. For Cc1ccc(NC(=O)c2ccnc(C(F)(F)F)c2)cc1-c1cnc2c(c1)N1CCOC[C@H]1C(C)(C)[C@H]2N [Example 527], the IC50 was 0.9 nM. Cc1ccc(NC(=O)c2ccnc(C(F)(F)F)c2)cc1-c1ccc2c(c1)N1CCOCC[C@H]1C(F)(F)[C@H]2O [Example 528] showed an IC50 of 0.7 nM. In the case of CC(=O)N[C@H]1c2ncc(-c3cc(NC(=O)c4ccnc(C(F)(F)F)c4)ccc3C)cc2N2CCOC[C@H]2C1(C)C [Example 529, N-(3-((4aR,6R)-6-acetamido-5,5-dimethyl-1,2,4,4a,5,6-hexahydro-[1,4]oxazino[4,3-a][1,5]naphthyridin-9-yl)-4-methylphenyl)-2-(trifluoromethyl)isonicotinamide], the IC50 is reported as 2.3 nM. CNC[C@@H]1Cc2ncc(-c3cc(NC(=O)c4ccnc(C(F)(F)F)c4)ccc3C)cc2N2CCOC[C@@H]12 [Example 530, N-(4-methyl-3-((4aR,5S)-5-((methylamino)meth-yl)-1,2,4,4a,5,6-hexahydro-[1,4]oxazino[4,3-a][1,5]naphthyridin-9-yl)phenyl)-2-(trifluoromethyl)iso-nicotinamide] showed an IC50 of 0.4 nM. In the case of CNC[C@H]1Cc2ncc(-c3cc(NC(=O)c4ccnc(C(F)(F)F)c4)ccc3C)cc2N2CCOC[C@H]12 [Example 531, N-(4-methyl-3-((4aS,5R)-5-((methylamino)meth-yl)-1,2,4,4a,5,6-hexahydro-[1,4]oxazino[4,3-a][1,5]naphthyridin-9-yl)phenyl)-2-(trifluoromethyl)iso-nicotinamide], the IC50 is reported as 0.2 nM. CC[C@@H]1Oc2nnc(-c3cc(NC(=O)c4ccnc(C(C)(F)F)c4)ccc3C)cc2N2CCOC[C@H]12 [Example 532, 2-(1,1-Difluoroethyl)-N-(3-((6S,6aR)-6-ethyl-6a,7,9,10-tetrahydro-6H-[1,4]oxazino[4,3-d]pyridazino[3,4-b][1,4]oxazin-2-yl)-4-methylphenyl)isonicotinamide] showed an IC50 of 0.2 nM. Compound CC[C@H]1Oc2nnc(-c3cc(NC(=O)c4ccnc(C(C)(F)F)c4)ccc3C)cc2N2CCOC[C@H]12 [Example 533, 2-(1,1-difluoroethyl)-N-(3-((6R,6aR)-6-ethyl-6a,7,9,10-tetrahydro-6H-[1,4]oxazino[4,3-d]pyridazino[3,4-b][1,4]oxazin-2-yl)-4-methylphenyl)isonicotinamide] has an IC50 of 0.1 nM. For CC[C@@H]1Oc2nnc(-c3cc(NC(=O)c4ccnc(C(C)(F)F)c4)ccc3C)cc2N2CCOC[C@@H]12 [Example 534, 2-(1,1-difluoroethyl)-N-(3-((6S,6aS)-6-ethyl-6a,7,9,10-tetrahydro-6H-[1,4]oxazino[4,3-d]pyridazino[3,4-b][1,4]oxazin-2-yl)-4-methylphenyl)isonicotinamide], the IC50 was 0.1 nM. In the case of “(R)-2-(1,1- difluoroethyl)-3- fluoro-N-(3-(7-(2- hydroxyethyl)-6- oxo-2,4,4a,5,6,7- hexahydro-1H- [1,4]oxazino[4,3- d]pyrido[2,3- b][1,4]diazepin-10- yl)-4- methylphenyl) isonicotinamide [Example 308]”, the IC50 is reported as 0.7 nM. “N-(3-(8-(2- hydroxyethyl)-7- oxo- 1,2,4,5,5a,6,7,8- octahydropyrido[3′, 2′:2,3][1,4]diazepino [1,7- d][1,4]oxazepin- 11-yl)-4- methylphenyl)-2- (trifluoromethyl) isonicotinamide [Example 320]” was tested, and the IC50 was 0.8 nM.

Source: patent US10377770B2 (Novartis AG, priority 2015, dated 2019)
